Consider one compound from patent publication US20250345190A1, “DRUG ELUTING STENT” (SINO MEDICAL SCIENCES TECHNOLOGY INC., priority 2020, published 2025).

Read-outs that look alike come from different tables or passages of the source.

Data set [1] is described as follows: Porcine-PK study of BuMA Supreme stent (blood, myocardium, coronary artery tissue). The data set is classed as in vivo, Yucatan Miniature Swine. The protocol: Release of drug from the stent and local, regional, and systemic delivery of sirolimus/rapamycin was quantified by measuring the drug content in stented coronary artery segments. Drug remaining on the stent and found in tissue was measured at 1, 3, 7, 14, 21, 28, […], 90, and 150 day time points. Stents were implanted into Yucatan Miniature Swine pigs. The porcine and human arteries have correlatively similar anatomy and the porcine model is recommended for use in preclinical studies by the FDA, EMEA and Schwartz et al. Thirty-one Yucatan mini-swine were implanted in two of three coronary arteries: the left circumflex artery [LCx], left anterior descending artery [LAD] and right coronary artery [RCA] of each animal, when possible.
Pharmacokinetic analysis was performed for both Rabbit-PK (2014-002) and Porcine-PK (1792-318G) studies, using whole blood, target tissue, and non-target tissue concentration versus time data, using Phoenix WinNonlin (version 8.1) non-compartment analysis function (linear trapezoidal rule for AUC calculations). Nominal dose values and sampling times were used for calculations. Any concentration reported as BLQ (LLOQ<0.100 ng/mL) was set equal to zero. Time points were manually evaluated for the determination of lambda z (R2>0.75), the elimination rate constant, upon which half-life (t1/2) was based.
For the rabbit and porcine study, pharmacokinetic analyses included Cmax, Tmax, Tlast, AUC0-24, AUClast, t1/2, and MRTlast and is presented in Table 2. Below.

Assay in data set [2]: as above
Format: in vivo, Yucatan Miniature Swine. Conditions: for concentration at 60 days: Yucatan miniature swine, pig, coronary artery, stented segment, other: drug-eluting stent implanted in coronary arteries.

Turning to `CO[C@H]1C[C@@H]2CC[C@@H](C)[C@@](O)(O2)C(=O)C(=O)N2CCCC[C@H]2C(=O)O[C@H]([C@H](C)C[C@@H]2CC[C@@H](O)[C@H](OC)C2)CC(=O)[C@H](C)/C=C(\C)[C@@H](O)[C@@H](OC)C(=O)[C@H](C)C[C@H](C)/C=C/C=C/C=C/1C` [Rapamycin, Sirolimus (rapamycin)], in data set [1] (Yucatan miniature swine, pig, coronary artery, stented segment, other: drug-eluting stent implanted in coronary arteries, study day 1, BuMA Supreme stent, porcine, read-out: Arterial drug concentration), the concentration at 1 days came out at 1630 ± 239 ng/g. In data set [1] (Yucatan miniature swine, pig, coronary artery, stented segment, other: drug-eluting stent implanted in coronary arteries, study day 3, read-out: Arterial drug concentration), the concentration at 3 days was 2270 ± 735 ng/g. In addition, in data set [1] (Yucatan miniature swine, pig, coronary artery, stented segment, other: drug-eluting stent implanted in coronary arteries, study day 7, read-out: Arterial drug concentration), the concentration at 7 days is 2580 ± 1430 ng/g. The concentration at 14 days in data set [1] (Yucatan miniature swine, pig, coronary artery, stented segment, other: drug-eluting stent implanted in coronary arteries, study day 14, read-out: Arterial drug concentration) amounted to 3700 ± 1710 ng/g. Further, the concentration at 21 days in data set [1] (Yucatan miniature swine, pig, coronary artery, stented segment, other: drug-eluting stent implanted in coronary arteries, study day 21, read-out: Arterial drug concentration) is 9850 ± 4720 ng/g. The concentration at 28 days in data set [1] (Yucatan miniature swine, pig, coronary artery, stented segment, other: drug-eluting stent implanted in coronary arteries, study day 28, read-out: Arterial drug concentration) is 6780 ± 4140 ng/g. In data set [1] (Yucatan miniature swine, pig, coronary artery, stented segment, other: drug-eluting stent implanted in coronary arteries, study day 90, read-out: Arterial drug concentration), the concentration at 90 days was 451 ± 188 ng/g. Also, the concentration at 150 days in data set [1] (Yucatan miniature swine, pig, coronary artery, stented segment, other: drug-eluting stent implanted in coronary arteries, study day 150, read-out: Arterial drug concentration) stood at 109 ± 12.1 ng/g. In addition, in data set [1] (after implantation, stented area), the “time at which maximum concentration of the drug in the artery occurred” value is 21 days. The “maximum concentration of the drug in the artery (stented area)” value in data set [1] (average, 21 days after implantation, porcine coronary artery, BuMA Supreme stent) stood at 9.85±4.72 μg/gm. The “drug concentration in artery segments proximal and distal to the stented segment, relative to the stented segment value” in data set [1] (in vivo) is listed as 3-11%. Moreover, the concentration at 60 days in data set [2] (by 60 days, read-out: concentration of the drug in the artery (stented area)) was 920 ± 200 ng/g; in data set [2] (study day 60, read-out: Arterial drug concentration), 922 ± 203 ng/g. For the same compound, the “samples with measurable drug levels in the artery” value in data set [2] (at 154 and 202 days) was “five of the twelve”.
